Measurements from article PMC12472391, “Borylated Five-Membered Ring Iminosugars: Synthesis, Spectroscopic Analysis, and Biological Evaluation for Glycosidase Inhibition and Anticancer Properties for Application in Boron Neutron Capture Therapy (BNCT)—Part 1” (Pharmaceuticals, 2025).

Tests used:
Assay type in all cases: biochemical
[1] = system: panel of 15 glycosidases; test: Glycosidase inhibition, whole panel of Table 6; conditions: at 100 or 1000 μM
Text: The enzymes α-D-glucosidase (from yeast), β-D-glucosidases (from almond and bovine liver), α-D-galactosidase (from coffee beans), β-D-galactosidase (from bovine liver), α-D-mannosidase (from Jack bean), β-D-mannosidase (from snail), α-L-rhamnosidase (from Penicillium decumbens), α-L-fucosidase (from bovine kidney), trehalase (from porcine kidney), β-D-glucuronidases (from E. coli and bovine liver), amyloglucosidase (from A. niger), para-nitrophenyl glycosides, and various disaccharides were purchased from Sigma-Aldrich Co. (St. Louis, MO, USA).
Brush border membranes were prepared from the rat small intestine according to the method of Kessler et al., and were assayed at pH 6.8 for rat intestinal maltase using maltose. For rat intestinal maltase, porcine kidney trehalase, and A. niger amyloglucosidase activities, the reaction mixture contained maltose (25 mM) and the appropriate amount of enzyme, and the incubations were performed for 10–30 min at 37 °C. The reaction was stopped by heating at 100 °C for 3 min. […] The absorbance at 505 nm was measured to determine the amount of the released D-glucose. Other glycosidase activities were determined using an appropriate para-nitrophenyl glycoside as substrate at the optimum pH of each enzyme. […] The released para-nitrophenol was measured spectrometrically at 400 nm. […]

[2] = molecular target: T1, α-D-mannosidase (Jack bean) (Canavalia ensiformis, UniProt C0HJB3); test: Glycosidase inhibition, Table 7; conditions: 1 mg/mL aqueous solution added, 27 °C, run in water; for inhibition at 1000 µg/mL (stock): read-out: α-D-Mannosidase Jack Bean, percentage inhibition
T1 construct: purchased Sigma
T1 sequence (C0HJB3 1-981): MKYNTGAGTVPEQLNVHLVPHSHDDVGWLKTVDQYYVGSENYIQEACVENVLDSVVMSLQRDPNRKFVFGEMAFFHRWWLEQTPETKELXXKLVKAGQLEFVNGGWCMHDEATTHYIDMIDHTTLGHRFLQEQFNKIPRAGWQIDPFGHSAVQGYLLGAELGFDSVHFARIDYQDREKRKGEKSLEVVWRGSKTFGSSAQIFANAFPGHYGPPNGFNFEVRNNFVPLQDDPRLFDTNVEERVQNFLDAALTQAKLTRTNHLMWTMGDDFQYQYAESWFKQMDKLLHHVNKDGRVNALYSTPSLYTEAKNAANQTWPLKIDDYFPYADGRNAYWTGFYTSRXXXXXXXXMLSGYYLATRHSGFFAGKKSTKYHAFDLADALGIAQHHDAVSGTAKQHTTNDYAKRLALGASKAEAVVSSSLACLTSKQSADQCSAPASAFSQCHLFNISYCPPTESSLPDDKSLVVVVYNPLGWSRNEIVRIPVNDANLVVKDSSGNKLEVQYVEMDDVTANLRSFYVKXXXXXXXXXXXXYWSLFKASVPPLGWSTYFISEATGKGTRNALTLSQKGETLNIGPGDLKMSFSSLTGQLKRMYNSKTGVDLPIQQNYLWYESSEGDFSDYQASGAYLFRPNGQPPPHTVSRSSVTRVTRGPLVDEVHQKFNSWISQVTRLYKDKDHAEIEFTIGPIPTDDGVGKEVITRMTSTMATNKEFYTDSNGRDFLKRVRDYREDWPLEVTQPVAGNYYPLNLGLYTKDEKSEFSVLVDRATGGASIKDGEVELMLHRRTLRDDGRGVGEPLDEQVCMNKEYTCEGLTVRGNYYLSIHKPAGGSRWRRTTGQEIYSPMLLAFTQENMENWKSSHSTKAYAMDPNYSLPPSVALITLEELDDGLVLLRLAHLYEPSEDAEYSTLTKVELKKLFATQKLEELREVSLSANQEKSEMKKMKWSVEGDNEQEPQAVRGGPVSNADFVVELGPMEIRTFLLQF

[3] = system: α-D-glucosidase (Bacillus); test: Glycosidase inhibition, Table 7; conditions: 1 mg/mL aqueous solution added, 27 °C, run in water
[4] = system: N-acetyl-β-D-glucosaminidase (bovine kidney); test: Glycosidase inhibition, Table 7; conditions: 1 mg/mL aqueous solution added, 27 °C, run in water
[5] = system: α-D-glucosidase (rat intestine); test: Glycosidase inhibition, Table 7; conditions: 1 mg/mL aqueous solution added, 27 °C, run in water
[6] = system: panel of eight glycosidases; test: Glycosidase inhibition, whole panel of Table 7; conditions: 1 mg/mL aqueous solution added
Method: All enzymes and para-nitrophenyl substrates were purchased from Sigma. Enzymes were assayed at 27 °C in citric acid (0.1M)/disodium hydrogen phosphate (0.2 M) buffers at the optimum pH for the enzyme. The incubation mixture consisted of […] enzyme solution, […] of 1 mg/mL aqueous solution of extract, and […] of the appropriate 5 mM para-nitrophenyl substrate made up in buffer at the optimum pH for the enzyme. The reactions were stopped by the addition of […] 0.4 M glycine (pH 10.4) during the exponential phase of the reaction, which had been determined at the beginning using uninhibited assays in which water replaced the inhibitor. Final absorbances were read at 405 nm using a Versamax microplate reader (Molecular Devices). Assays were carried out in triplicate, and the values given are the means of the three replicates per assay. All reactions run in water.

[7] = molecular target: β-D-galactosidase (E. coli) (Escherichia coli, UniProt P00722); test: Glycosidase inhibition, Table 6 footnote; conditions: read-out: β-D-galactosidase (E. coli), inhibition % at 100 μM
[8] = molecular target: α-D-glucosidase (human lysosome) (Homo sapiens, UniProt P10253); test: Glycosidase inhibition, Table 6 footnote
[9] = molecular target: β-D-glucosidase (human lysosome) (Homo sapiens, UniProt P04062); test: Glycosidase inhibition, Table 6 footnote
Chain of β-D-glucosidase (human lysosome) (P04062 40-536): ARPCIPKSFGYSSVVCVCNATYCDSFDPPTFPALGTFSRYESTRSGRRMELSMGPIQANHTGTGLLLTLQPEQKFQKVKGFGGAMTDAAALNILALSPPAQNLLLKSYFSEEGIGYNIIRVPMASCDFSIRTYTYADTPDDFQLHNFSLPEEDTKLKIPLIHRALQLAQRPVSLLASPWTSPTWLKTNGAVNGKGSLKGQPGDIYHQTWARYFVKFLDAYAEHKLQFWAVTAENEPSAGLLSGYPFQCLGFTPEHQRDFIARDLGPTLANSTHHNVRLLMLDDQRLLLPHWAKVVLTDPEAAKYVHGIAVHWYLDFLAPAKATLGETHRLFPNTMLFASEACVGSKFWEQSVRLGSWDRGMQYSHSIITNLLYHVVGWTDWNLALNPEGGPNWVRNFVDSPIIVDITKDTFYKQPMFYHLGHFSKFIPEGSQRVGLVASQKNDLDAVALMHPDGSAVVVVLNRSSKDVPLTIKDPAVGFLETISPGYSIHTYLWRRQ

Chain of β-D-galactosidase (E. coli) (P00722 2-1024): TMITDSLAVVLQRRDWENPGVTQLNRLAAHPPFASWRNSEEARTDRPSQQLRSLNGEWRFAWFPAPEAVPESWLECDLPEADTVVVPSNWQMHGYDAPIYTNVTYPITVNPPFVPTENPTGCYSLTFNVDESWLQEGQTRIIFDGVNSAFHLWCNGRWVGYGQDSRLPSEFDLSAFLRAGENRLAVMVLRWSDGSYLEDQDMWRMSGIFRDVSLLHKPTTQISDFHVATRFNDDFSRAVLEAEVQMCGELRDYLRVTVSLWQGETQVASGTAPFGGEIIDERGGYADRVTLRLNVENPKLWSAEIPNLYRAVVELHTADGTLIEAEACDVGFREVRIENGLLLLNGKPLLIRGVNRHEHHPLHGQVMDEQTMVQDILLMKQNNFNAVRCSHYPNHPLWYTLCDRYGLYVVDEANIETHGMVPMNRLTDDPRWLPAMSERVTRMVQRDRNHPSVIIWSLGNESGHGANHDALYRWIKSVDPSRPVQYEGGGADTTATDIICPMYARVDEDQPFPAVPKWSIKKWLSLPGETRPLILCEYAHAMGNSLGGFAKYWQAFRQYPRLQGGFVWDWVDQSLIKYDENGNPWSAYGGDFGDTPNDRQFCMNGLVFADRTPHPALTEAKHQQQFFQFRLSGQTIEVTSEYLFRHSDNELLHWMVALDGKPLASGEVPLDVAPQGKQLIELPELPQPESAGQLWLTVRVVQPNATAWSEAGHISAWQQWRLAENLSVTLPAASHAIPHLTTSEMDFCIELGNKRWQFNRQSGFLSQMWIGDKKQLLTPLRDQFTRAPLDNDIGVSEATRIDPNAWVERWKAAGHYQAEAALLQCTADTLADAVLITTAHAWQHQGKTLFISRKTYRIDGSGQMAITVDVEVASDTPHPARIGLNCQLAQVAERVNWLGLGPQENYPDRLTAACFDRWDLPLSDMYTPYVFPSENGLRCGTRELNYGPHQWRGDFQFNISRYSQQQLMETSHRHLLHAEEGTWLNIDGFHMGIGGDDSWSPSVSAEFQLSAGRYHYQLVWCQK

Compound	inhibition at 1000 µg/mL (stock) [2] [%]	α-D-Glucosidase Bacillus, percentage inhibition [3] [%]	N-Acetyl-β-D-glucosaminidase Bovine Kidney, percentage inhibition [4] [%]	inhibitions across the panel (Table 7) [6]	further results
CC1(C)O[C@H]2O[C@H]3[C@@H]([C@H]2O1)N(Cc1ccc(B2OC(C)(C)C(C)(C)O2)cc1)C[C@H]3O [para 6, N-(4-Methylphenylboronic acid pinacol ester)-3,6-dideoxy-3,6-imino-1,2-O-isopropylidene-α-D-gulofuranose]					percent inhibitions in the panel (Table 6) [1]: do not provide a strong degree of inhibition
CC1(C)O[C@H]2O[C@H]3[C@@H]([C@H]2O1)N(Cc1ccccc1)C[C@H]3O [Compound 3, N-Benzyl-3,6-dideoxy-3,6-imino-1,2-O-isopropylidene-α-D-gulofuranose]	-30.6	−43.2	−0.1		
OB(O)c1ccc(CN2CC(O)C3OC(O)C(O)C32)cc1 [para 7, N-(4-Methylphenylboronic acid)-3,6-dideoxy-3,6-imino-D-gulofuranose]					α-D-Glucosidase Rat Intestine, percentage inhibition [5]: −5.4%
N[C@@H](Cc1ccc(B(O)O)cc1)C(=O)O [^10B-BPA, reference compound]		19.5	6.3	below 30%	α-D-Mannosidase Jack Bean, percentage inhibition [2]: −0.7%
N[C@@H](Cc1ccc(B(O)O)cc1)C(=O)O [BPA, 4-borono-L-phenylalanine, reference compound]	0.6	19.9	6.7	below 30%	
borocaptate sodium [BSH, reference compound]		48.1	37.1	31.6–65.9%	α-D-Mannosidase Jack Bean, percentage inhibition [2]: −18.7%
OC[C@H](O)[C@@H]1[C@H](O)[C@H](O)CN1Cc1ccccc1 [Compound 5, N-Benzyl-1,4-dideoxy-1,4-imino-L-gulitol]					inhibition at 100 µM [7]: 0%; inhibition at 100 µM [8]: 0%; percent inhibitions in the panel (Table 6) [1]: do not provide a strong degree of inhibition; inhibition at 100 µM [9]: 2.91%; α-D-Glucosidase Rat Intestine, percentage inhibition [5]: −1.3%
OC1O[C@@H]2[C@H]([C@H]1O)N(Cc1ccccc1)C[C@H]2O (stereo partly drawn) [Compound 4, N-Benzyl-3,6-dideoxy-3,6-imino-D-gulofuranose]	-12.1	−37.9	−9.1		
